Results taken from patent US9914958B2, “Nucleic acid-based linkers for detecting and measuring interactions” (President and Fellows of Harvard College, priority 2011, dated 2018).

Target: streptavidin (Streptomyces avidinii, UniProt P22629)
Test: DNA nanoswitch gel electrophoresis assay of biotin-streptavidin dissociation kinetics
Type: binding
Settings: for dissociation time: 150 mM salt, multiplied by two to represent a single biotin-streptavidin interaction
Description: Linkers were designed according to protocols for long (2580 bp) and short (600 bp) loops as described herein. […] All other oligos were the same as those used previously. Briefly, looped constructs were made by mixing a long single-stranded DNA (M13mp18, in this case) with over 121 oligos that are complementary along its length. […] The constructs come together by self-assembly with a temperature ramp heating and cooling them.
Recognizing that the nanoswitch conformation informs the receptor-ligand binding state (bound or unbound), and that the conformation can be observed on a gel, an assay to measure bulk interaction kinetics was developed. The assay, conceptually shown in FIG. 7, proceeds as follows: 1) form a looped nucleic acid (DNA) construct that relies on a receptor and a ligand being bound to each other, 2) quench the interaction between the receptor and the ligand, for example, with excess receptor or ligand to prevent rebinding following dissociation, 3) monitor the relative amount of looped construct over time to measure kinetics.
Linear double-stranded DNA constructs 7249 base pairs (bp) in length were self-assembled by combining the single-stranded M13 bacteriophage genome with 121 complementary oligos. (See also Halvorsen K et al., 2011). Two of the oligos were labeled with single biotins and placed 2580 bp from each other, such that interaction with streptavidin induced the formation of a 2580 bp loop in the structure. […] The entire array of 16 conditions with five time points each plus controls was then run on a single 96 lane agarose gel (FIG. 8).
To determine the biotin-streptavidin dissociation kinetics, an image of the gel was analyzed using publicly available software (ImageJ). The gel analysis tool in ImageJ was used to measure the integrated intensity of the band containing looped construct, and this quantity was normalized by the integrated intensity of a reference band in the same lane from a DNA ladder, which was added to the construct prior to starting experiments. Individual time constants for each experimental condition were determined by fitting a single exponential decay to the data using an error weighted least squares fitting.

Sequence of streptavidin (P22629 25-183, species assumed): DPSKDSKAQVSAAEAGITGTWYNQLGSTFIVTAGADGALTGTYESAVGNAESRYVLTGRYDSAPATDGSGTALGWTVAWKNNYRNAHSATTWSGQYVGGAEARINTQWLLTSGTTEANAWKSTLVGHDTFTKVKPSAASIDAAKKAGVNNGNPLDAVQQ

## O=C(O)CCCC[C@@H]1SC[C@@H]2NC(=O)N[C@@H]21 [biotin]
25° C.
  dissociation time: 148 ± 10 h
37° C.
  dissociation time: 11.2 ± 3 h
16 conditions: four salts, four temperatures (4° C. to 50° C., 5 mM to 500 mM)
  time constants, range over the conditions tested: half of an hour to two months
16 experimental conditions, FIG. 8 table
  time constants, range (FIG. 8 legend): less than 1 hour to over 1000 hours
At a given salt concentration, from 4° C. to 50° C.
  variation of off-rate with temperature: over 100 fold
At a given temperature, from 5 mM to 500 mM
  change of off-rate with salt: less than 2 fold
High temperature
  fastest off-rate measured (as a time): 40 min
